Measurements: PMC8317666, “Combining flavin photocatalysis with parallel synthesis: a general platform to optimize peptides with non-proteinogenic amino acids” (Chemical Science, 2021)

Target: Thrombin (Homo sapiens, UniProt P00734)
Test: Thrombin inhibition assay (Sigma Thrombin Inhibitor Screening Kit MAK243)
[1] = 80 μM peptide (screening grade, mixture of diastereomers), 15 min preincubation with thrombin at room temperature, AMC-based peptide substrate, 37 °C, 30 min incubation, fluorescence Ex/Em 350/450 nm, 384-well, replicate 1 of 2
[2] = 80 μM peptide (screening grade, mixture of diastereomers), 15 min preincubation, AMC substrate, 37 °C, 30 min, fluorescence, average of two independent experiments

Row | Percent thrombin inhibition, 1st run [1] [%] | Percent thrombin inhibition, Average [2] [%] | Percent thrombin inhibition, 2nd run (80 μM peptide (screening grade, mixture of diastereomers), 15 min preincubation, AMC substrate, 37 °C, 30 min, fluorescence, replicate 2 of 2) [%] | Percent thrombin inhibition, Average (80 μM, parent peptide and HPLC-separated diastereomers of 3C' (>95% purity), 30 min incubation, average of three independent experiments) [%] | Percent thrombin inhibition, 1st run (80 μM, parent peptide and HPLC-separated diastereomers of 3C' (>95% purity), 30 min incubation, replicate 1 of 3) [%] | Percent thrombin inhibition, 2nd run (80 μM, parent peptide and HPLC-separated diastereomers of 3C' (>95% purity), 30 min incubation, replicate 2 of 3) [%] | Percent thrombin inhibition, 3rd run (80 μM, parent peptide and HPLC-separated diastereomers of 3C' (>95% purity), 30 min incubation, replicate 3 of 3) [%] | Percent thrombin inhibition, Average (80 μM peptide (screening grade, mixture of diastereomers), 15 min preincubation, AMC substrate, 37 °C, 30 min, fluorescence, average of two independent experiments, listed as 3C′) [%] | Substance
1 | -2.1 | -2.5 | -2.9 | – | – | – | – | – | Ac-G-P-[5-Qin]-F-NH2 [4B']
2 | – | – | – | 7.1 | 9.4 | 5.5 | 6.5 | – | Ac-Gly-Pro-Phe-Phe-NH2 [Ac-G-P-F-F-NH2]
3 | 96.7 | 96.9 | – | – | – | – | – | 97 | Ac-Gly-Pro-[N(Me)-2-Ind]-Phe-NH2 [3C']
